US20210395217A1, “PESTICIDALLY ACTIVE AZOLE-AMIDE COMPOUNDS” (SYNGENTA PARTICIPATIONS AG, priority 2018, published 2021)

Columns and labels:
Assay type in all cases: in vivo
Myzus persicae [1] = test: Example B5: Myzus persicae (green peach aphid), feeding/contact activity, sunflower leaf discs; conditions: foliar, 144 h, application rate of 200 ppm, 6 days after infestation
Description: Example B5: Myzus persicae (Green Peach Aphid): Feeding/Contact Activity
Sunflower leaf discs were placed onto agar in a 24-well microtiter plate and sprayed with aqueous test solutions prepared from 10′000 ppm DMSO stock solutions. After drying, the leaf discs were infested with an aphid population of mixed ages. The samples were assessed for mortality 6 days after infestation.

Diabrotica balteata = test: Example B1: Diabrotica balteata (corn root worm), maize sprouts sprayed, L2 larvae; conditions: 96 h, application rate of 200 ppm, 4 days after infestation, read-out: control in at least one of the two categories (mortality or growth inhibition)
Description: Example B1: Diabrotica balteata (Corn Root Worm)
Maize sprouts placed onto an agar layer in 24-well microtiter plates were treated with aqueous test solutions prepared from 10′000 ppm DMSO stock solutions by spraying. After drying, the plates were infested with L2 larvae (6 to 10 per well). The samples were assessed for mortality and growth inhibition in comparison to untreated samples 4 days after infestation.
The following compounds gave an effect of at least 80% control in at least one of the two categories (mortality or growth inhibition) at an application rate of 200 ppm: […]

Plutella xylostella [2] = test: Example B4: Plutella xylostella (diamond back moth), artificial diet, 24-well, eggs; conditions: 192 h, application rate of 200 ppm, 8 days after infestation, 24-well plates, read-out: control in at least one of the two categories (mortality or growth inhibition)
Description: Example B4: Plutella xylostella (Diamond Back Moth)
24-well microtiter plates with artificial diet were treated with aqueous test solutions prepared from 10′000 ppm DMSO stock solutions by pipetting. After drying, Plutella eggs were pipetted through a plastic stencil onto a gel blotting paper and the plate was closed with it. The samples were assessed for mortality and growth inhibition in comparison to untreated samples 8 days after infestation. The following compounds gave an effect of at least 80% control in at least one of the two categories (mortality or growth inhibition) at an application rate of 200 ppm: […]

Myzus persicae [3] = test: Example B9: Myzus persicae (green peach aphid), sucrose solution, 96-well; conditions: 120 h, application rate of 50 ppm, 5 days after infestation, 96-well plates
Excerpt: Example B9: Myzus persicae (Green Peach Aphid)
Test compounds prepared from 10′000 ppm DMSO stock solutions were applied by a liquid handling robot into 96-well microtiter plates and mixed with a sucrose solution. Parafilm was stretched over the 96-well microtiter plate and a plastic stencil with 96 holes was placed onto the plate. Aphids were sieved into the wells directly onto the Parafilm. The infested plates were closed with a gel blotting card and a second plastic stencil and then turned upside down. The samples were assessed for mortality 5 days after infestation.

Myzus persicae [4] = test: Example B6: Myzus persicae (green peach aphid), intrinsic activity, sucrose solution, 24-well; conditions: 120 h, test rate of 12 ppm, 5 days after infestation
Excerpt: Example B6: Myzus Persicae (Green Peach Aphid): Intrinsic Activity
Test compounds prepared from 10′000 ppm DMSO stock solutions were applied by pipette into 24-well microtiter plates and mixed with sucrose solution. The plates were closed with a stretched Parafilm. A plastic stencil with 24 holes was placed onto the plate and infested pea seedlings were placed directly on the Parafilm. The infested plate was closed with a gel blotting paper and another plastic stencil and then turned upside down. The samples were assessed for mortality 5 days after infestation.

Chilo suppressalis = test: Example B3: Chilo suppressalis (striped rice stem borer), artificial diet, L2 larvae; conditions: 144 h, application rate of 200 ppm, 6 days after infestation, read-out: control in at least one of the three categories (mortality, anti-feedant effect, or growth inhibition)
Description: Example B3: Chilo suppressalis (Striped Rice Stem Borer)
24-well microtiter plates with artificial diet were treated with aqueous test solutions prepared from 10′000 ppm DMSO stock solutions by pipetting. After drying, the plates were infested with L2 larvae (6-8 per well). The samples were assessed for mortality, anti-feeding effect, and growth inhibition in comparison to untreated samples 6 days after infestation. Control of Chilo suppressalis by a test sample is given when at least one of the categories mortality, anti-feedant effect, and growth inhibition is higher than the untreated sample.

Euschistus heros = test: Example B2: Euschistus heros (neotropical brown stink bug), soybean leaves sprayed, N2 nymphs; conditions: 120 h, application rate of 200 ppm, 5 days after infestation, read-out: control in at least one of the two categories (mortality or growth inhibition)
Description: Example B2: Euschistus heros (Neotropical Brown Stink Bug)
Soybean leaves on agar in 24-well microtiter plates were sprayed with aqueous test solutions prepared from 10′000 ppm DMSO stock solutions. After drying the leaves were infested with N2 nymphs. The samples were assessed for mortality and growth inhibition in comparison to untreated samples 5 days after infestation.
The following compounds gave an effect of at least 80% control in at least one of the two categories (mortality or growth inhibition) at an application rate of 200 ppm: F2, F4, F6, F8, F12, F16.

Spodoptera littoralis [5] = test: Example B7: Spodoptera littoralis (Egyptian cotton leaf worm), cotton leaf discs sprayed, L1 larvae; conditions: foliar, 72 h, application rate of 200 ppm, 3 days after infestation, read-out: control in at least one of the three categories (mortality, anti-feedant effect, or growth inhibition)
Description: Example B7: Spodoptera littoralis (Egyptian Cotton Leaf Worm)
Cotton leaf discs were placed onto agar in 24-well microtiter plates and sprayed with aqueous test solutions prepared from 10′000 ppm DMSO stock solutions. After drying the leaf discs were infested with five L1 larvae. The samples were assessed for mortality, anti-feeding effect, and growth inhibition in comparison to untreated samples 3 days after infestation. Control of Spodoptera littoralis by a test sample is given when at least one of the categories mortality, anti-feedant effect, and growth inhibition is higher than the untreated sample.

Plutella xylostella [6] = test: Example B10: Plutella xylostella (diamondback moth), artificial diet, 96-well, eggs; conditions: 216 h, application rate of 500 ppm, 9 days after infestation, 96-well plates
Description: Example B10: Plutella xylostella (Diamondback Moth)
96-well microtiter plates containing artificial diet were treated with aqueous test solutions, prepared from 10′000 ppm DMSO stock solutions, by a liquid handling robot. After drying, eggs (˜30 per well) were infested onto a netted lid which was suspended above the diet. The eggs hatch and L1 larvae move down to the diet. The samples were assessed for mortality 9 days after infestation.
The following compounds gave an effect of at least 80% average mortality at an application rate of 500 ppm: […]

Spodoptera littoralis [7] = test: Example B8: Spodoptera littoralis (Egyptian cotton leaf worm), uptake by lettuce roots from agar, eggs; conditions: 144 h, test rate of 12.5 ppm, 6 days after infestation, compound absorbed by lettuce roots, read-out: control in at least one of the three categories (mortality, anti-feeding, or growth inhibition)
Excerpt: Example B8: Spodoptera Littoralis (Egyptian Cotton Leaf Worm)
Test compounds were applied by pipette from 10′000 ppm DMSO stock solutions into 24-well plates and mixed with agar. Lettuce seeds were placed onto the agar and the multi well plate was closed by another plate which contained also agar. After 7 days the compound was absorbed by the roots and the lettuce grew into the lid plate. The lettuce leaves were then cut off into the lid plate. Spodoptera eggs were pipetted through a plastic stencil onto a humid gel blotting paper and the lid plate was closed with it. The samples were assessed for mortality, anti-feedant effect and growth inhibition in comparison to untreated samples 6 days after infestation.
The following compounds gave an effect of at least 80% control in at least one of the three categories (mortality, anti-feeding, or growth inhibition) at a test rate of 12.5 ppm: […]

Cc1nc(C(C)N(C)C(=O)c2cc(C(F)(F)F)cc(C(F)(F)F)c2)n(-c2ccc(C#N)cn2)n1 (centres unmarked) [Compound F16, N-[1-[2-(5-cyano-2-pyridyl)-5-methyl-1,2,4-triazol-3-yl]ethyl]-N-methyl-3,5-bis(trifluoromethyl) benzamide]
≥ 80%: mortality at 200 ppm (Myzus persicae [1]) | percent control (mortality or growth inhibition) at 200 ppm (Diabrotica balteata) | percent control (mortality or growth inhibition) at 200 ppm (Plutella xylostella [2]) | mortality at 50 ppm (Myzus persicae [3]) | mortality at 12 ppm (Myzus persicae [4]) | percent control (mortality, anti-feedant effect or growth inhibition) at 200 ppm (Chilo suppressalis) | percent control (mortality or growth inhibition) at 200 ppm (Euschistus heros) | percent control (mortality, anti-feedant effect or growth inhibition) at 200 ppm (Spodoptera littoralis [5])

CC(NC(=O)c1cc(SC(F)(F)F)cc(C(F)(F)F)c1)c1nc(C2CC2)nn1-c1ccc(C#N)cn1 (centres unmarked) [Compound F12, N-[1-[2-(5-cyano-2-pyridyl)-5-cyclopropyl-1,2,4-triazol-3-yl]ethyl]-3-(trifluoromethyl)-5-(trifluoromethylsulfanyl) benzamide]
≥ 80%: percent control (mortality or growth inhibition) at 200 ppm (Diabrotica balteata) | mortality at 500 ppm (Plutella xylostella [6]) | percent control (mortality or growth inhibition) at 200 ppm (Plutella xylostella [2]) | percent control (mortality, anti-feedant effect or growth inhibition) at 200 ppm (Chilo suppressalis) | percent control (mortality or growth inhibition) at 200 ppm (Euschistus heros) | percent control (mortality, anti-feedant effect or growth inhibition) at 200 ppm (Spodoptera littoralis [5])

Cc1nc(C(C)NC(=O)c2cc(Br)cc(C(F)(F)F)c2)n(-c2ccc(C#N)cn2)n1 (centres unmarked) [Compound F8, 3-bromo-N-[1-[2-(5-cyano-2-pyridyl)-5-methyl-1,2,4-triazol-3-yl]ethyl]-5-(trifluoromethyl) benzamide]
≥ 80%: percent control (mortality or growth inhibition) at 200 ppm (Diabrotica balteata) | percent control (mortality or growth inhibition) at 200 ppm (Plutella xylostella [2]) | mortality at 50 ppm (Myzus persicae [3]) | mortality at 12 ppm (Myzus persicae [4]) | percent control (mortality or growth inhibition) at 200 ppm (Euschistus heros) | percent control (mortality, anti-feedant effect or growth inhibition) at 200 ppm (Spodoptera littoralis [5])

CC(c1ncnn1-c1ccc(C#N)cn1)N(C)C(=O)c1cc(C(F)(F)F)cc(C(F)(F)F)c1 (centres unmarked) [Compound F2, N-[1-[2-(5-cyano-2-pyridyl)-1,2,4-triazol-3-yl]ethyl]-N-methyl-3,5-bis(trifluoromethyl) benzamide]
≥ 80%: percent control (mortality, anti-feeding or growth inhibition) at 12.5 ppm (Spodoptera littoralis [7]) | percent control (mortality or growth inhibition) at 200 ppm (Diabrotica balteata) | mortality at 500 ppm (Plutella xylostella [6]) | percent control (mortality or growth inhibition) at 200 ppm (Plutella xylostella [2]) | mortality at 50 ppm (Myzus persicae [3]) | mortality at 12 ppm (Myzus persicae [4]) | percent control (mortality, anti-feedant effect or growth inhibition) at 200 ppm (Chilo suppressalis) | percent control (mortality or growth inhibition) at 200 ppm (Euschistus heros) | percent control (mortality, anti-feedant effect or growth inhibition) at 200 ppm (Spodoptera littoralis [5])

CC(c1ncnn1-c1ncc(C#N)cn1)N(CC1CC1)C(=O)c1cc(C(F)(F)F)cc(C(F)(F)F)c1 (centres unmarked) [Compound F4, N-[1-[2-(5-cyanopyrimidin-2-yl)-1,2,4-triazol-3-yl]ethyl]-N-(cyclopropylmethyl)-3,5-bis(trifluoromethyl) benzamide]
≥ 80%: percent control (mortality or growth inhibition) at 200 ppm (Diabrotica balteata) | percent control (mortality or growth inhibition) at 200 ppm (Euschistus heros) | percent control (mortality, anti-feedant effect or growth inhibition) at 200 ppm (Spodoptera littoralis [5])

Cc1nc(C(C)NC(=O)c2cc(OC(F)F)cc(C(F)(F)F)c2)n(-c2ccc(C#N)cn2)n1 (centres unmarked) [Compound F6, N-[1-[2-(5-cyano-2-pyridyl)-5-methyl-1,2,4-triazol-3-yl]ethyl]-3-(difluoromethoxy)-5-(trifluoromethyl) benzamide]
≥ 80%: percent control (mortality or growth inhibition) at 200 ppm (Diabrotica balteata) | percent control (mortality or growth inhibition) at 200 ppm (Plutella xylostella [2]) | mortality at 50 ppm (Myzus persicae [3]) | mortality at 12 ppm (Myzus persicae [4]) | percent control (mortality or growth inhibition) at 200 ppm (Euschistus heros) | percent control (mortality, anti-feedant effect or growth inhibition) at 200 ppm (Spodoptera littoralis [5])

Cc1nc(C(C)NC(=O)c2cc(C(F)F)cc(C(F)(F)F)c2)n(-c2ccc(C#N)cn2)n1 (centres unmarked) [Compound F9, N-[1-[2-(5-cyano-2-pyridyl)-5-methyl-1,2,4-triazol-3-yl]ethyl]-3-(difluoromethyl)-5-(trifluoromethyl) benzamide]
≥ 80%: percent control (mortality or growth inhibition) at 200 ppm (Diabrotica balteata) | percent control (mortality or growth inhibition) at 200 ppm (Plutella xylostella [2]) | mortality at 50 ppm (Myzus persicae [3]) | mortality at 12 ppm (Myzus persicae [4]) | percent control (mortality, anti-feedant effect or growth inhibition) at 200 ppm (Chilo suppressalis) | percent control (mortality, anti-feedant effect or growth inhibition) at 200 ppm (Spodoptera littoralis [5])
